According to patent US20060127990A1, “4'-thionucleotide” (GENETICLAB CO., LTD, priority 2002, published 2006):

How the values were obtained:
T7 RNA polymerase [1] = biological target: T1, T7 RNA polymerase (Escherichia phage T7, UniProt P00573); assay: Incorporation of 4′-thio UTP and 4′-thio CTP into RNA chain with T7 RNA polymerase (30mer transcript); format: biochemical; conditions: 0.4 mM NTPs, replacing the native NTP, 47mer double-stranded DNA template, 37° C., 3 hours
Procedure: Incorporation experiment using T7 RNA polymerase was performed with 4′-thio UTP and 4′-thio CTP. In this experiment, 47mer double-stranded DNA containing T7 promoter sequence was used (FIG. 9).
The reaction was conducted in 20 μL of a solution containing 40 mM Tris-HCl with pH 8.0, 8 mM MgCl2, 2 mM spermidine, 5 mM DTT, 0.4 mM NTPS, 17 nM [γ-^32P]GTP, 2.0 μM template DNA and 100 U T7 RNA polymerase. NTPs were (1) ATP, GTP, CTP and UTP, (2) using 4′-thio UTP instead of UTP, 3) using 4′-thio CTP instead of CTP, and 4) UTP and CTP were replaced with 4′-thio UTP and 4′-thio CTP. The reaction solution was incubated at 37° C. for 3 hours, and the reaction was stopped. Subsequently, electrophoresis was performed with 20% modified polyacrylamide gel (30×40×0.05 cm, 1800 V, 1 hour, 1×TEB), and analysed by autoradiography.
A relative transcription efficiency is shown in FIG. 10 with a transcription efficiency of native NTPs being defined as 100.

T7 RNA polymerase [2] = biological target: T1, T7 RNA polymerase; assay: Incorporation of 4′-thio UTP into RNA chain with T7 RNA polymerase (26mer transcript); format: biochemical; conditions: 0.4 mM NTPs (GTP+ATP+CTP+4′-thio UTP), 100 U T7 RNA polymerase, 37° C., 3 hours; compared with lane 4 (native UTP)
Procedure: Incorporation experiment using T7 RNA polymerase was performed with 4′-thio UTP obtained in Example 9. In this experiment, double-stranded DNA containing T7 promoter sequence was used (FIG. 7).
The reaction was conducted in 20 μL of a solution containing 40 mM Tris-HCl with PH 8.0, 8 mM MgCl2, 2 mM spermidine, 5 mM DTT, 0.4 mM NTPs, 17 nM [γ-^32P]GTP, 2.0 μM template DNA and 100 U T7 RNA polymerase. NTPs were (1) GTP, (2) GTP+ATP, (3) GTP+ATP+CTP, (4) GTP+ATP+CTP+UTP, and (5) GTP+ATP+CTP+4′-thio UTP, respectively. The reaction solution was incubated at 37° C. for 3 hours, and the reaction was stopped. Subsequently, electrophoresis was performed with 20% modified polyacrylamide gel (30×40×0.05 cm, 1800 V, 1 hour, 1×TEB), and analysed by autoradiography.
In lane 1, bands corresponding to 2mer and 3mer of G and a rudder were observed. In lane 2, an expected band with chain elongation stopped at 6mer was observed, and a minor band elongated by one residue was observed. In lane 3, an expected band with chain elongation stopped at 9mer was observed, and a minor band elongated by one residue was observed. In lane 4, a band of 26mer full-length product was observed.

T1 sequence (P00573 whole entry): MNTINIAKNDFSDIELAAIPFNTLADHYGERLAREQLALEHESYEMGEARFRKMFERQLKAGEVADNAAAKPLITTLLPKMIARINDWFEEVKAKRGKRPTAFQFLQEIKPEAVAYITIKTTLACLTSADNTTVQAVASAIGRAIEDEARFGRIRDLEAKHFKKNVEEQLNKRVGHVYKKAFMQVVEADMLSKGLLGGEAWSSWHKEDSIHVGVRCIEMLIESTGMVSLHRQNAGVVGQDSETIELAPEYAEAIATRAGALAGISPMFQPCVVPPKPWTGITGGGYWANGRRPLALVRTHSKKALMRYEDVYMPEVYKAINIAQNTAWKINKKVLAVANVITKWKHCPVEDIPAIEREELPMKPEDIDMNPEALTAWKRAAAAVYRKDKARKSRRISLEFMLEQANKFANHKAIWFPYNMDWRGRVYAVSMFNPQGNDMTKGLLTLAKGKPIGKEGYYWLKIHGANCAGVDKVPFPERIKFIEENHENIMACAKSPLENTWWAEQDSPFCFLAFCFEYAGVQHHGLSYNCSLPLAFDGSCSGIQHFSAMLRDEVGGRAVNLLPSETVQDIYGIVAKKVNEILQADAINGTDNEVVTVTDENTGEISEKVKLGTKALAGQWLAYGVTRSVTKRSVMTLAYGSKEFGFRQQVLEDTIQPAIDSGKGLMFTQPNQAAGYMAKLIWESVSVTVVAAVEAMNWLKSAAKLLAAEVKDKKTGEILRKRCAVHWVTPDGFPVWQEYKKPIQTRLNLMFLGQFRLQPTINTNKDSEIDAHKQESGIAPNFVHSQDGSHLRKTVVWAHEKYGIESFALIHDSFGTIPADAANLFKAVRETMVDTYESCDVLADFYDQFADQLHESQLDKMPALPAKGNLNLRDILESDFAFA

Row | SMILES | recognition by T7 RNA polymerase as substrate and incorporation into RNA chain (30mer full-length product) (T7 RNA polymerase [1]) | band of full-length product (26mer RNA) when used instead of UTP (T7 RNA polymerase [2])
1 | Nc1ccn([C@@H]2S[C@H](COP(=O)(O)OP(=O)(O)OP(=O)(O)O)[C@@H](O)[C@H]2O)c(=O)n1 [4′-thio CTP, 4′-Thiocytidine 5′-triphosphate] | incorporated into RNA chain efficiently | 
2 | O=c1ccn([C@@H]2S[C@H](COP(=O)(O)OP(=O)(O)OP(=O)(O)O)[C@@H](O)[C@H]2O)c(=O)[nH]1 [4′-thio UTP, 4′-Thiouridine 5′-triphosphate] | incorporated into RNA chain efficiently | approximately the same amount as in lane 4
